# Experimental data published in ChEMBL document CHEMBL4417631, “Oral peptide inhibitors of interleukin-23 receptor and their use to treat inflammatory bowel diseases” (2017).
# *1 amine or outer side, *2 acyl side, *3 side chain or, on linkers, in order; H or OH if unused. Where a SMILES comes first, the peptide text is derived from it. Bridges are numbered along the chain shown (N, C = ends). [ ]: non-standard residue; d: D form. Abu(4-yl) = O=C([C@H](CC[*:3])N[*:1])[*:2]; 2Nal = N[C@@H](Cc1ccc2ccccc2c1)C(=O)O; AEF = NCCOc1ccc(C[C@H](N)C(=O)O)cc1; αMeK = C[C@](N)(CCCCN)C(=O)O
# Columns and labels:
# [1] = Half life in simulated intestinal fluid at 20 uM by LC-MS/MS analysis; assay type: ADME
# [2] = molecular target: T1, Interleukin-23 receptor (Homo sapiens, UniProt Q5VWK5); test: Inhibition of interleukin-23 binding to human interleukin-23 receptor incubated for 2 hrs by competitive binding ELISA
# T1 sequence (Q5VWK5 whole entry): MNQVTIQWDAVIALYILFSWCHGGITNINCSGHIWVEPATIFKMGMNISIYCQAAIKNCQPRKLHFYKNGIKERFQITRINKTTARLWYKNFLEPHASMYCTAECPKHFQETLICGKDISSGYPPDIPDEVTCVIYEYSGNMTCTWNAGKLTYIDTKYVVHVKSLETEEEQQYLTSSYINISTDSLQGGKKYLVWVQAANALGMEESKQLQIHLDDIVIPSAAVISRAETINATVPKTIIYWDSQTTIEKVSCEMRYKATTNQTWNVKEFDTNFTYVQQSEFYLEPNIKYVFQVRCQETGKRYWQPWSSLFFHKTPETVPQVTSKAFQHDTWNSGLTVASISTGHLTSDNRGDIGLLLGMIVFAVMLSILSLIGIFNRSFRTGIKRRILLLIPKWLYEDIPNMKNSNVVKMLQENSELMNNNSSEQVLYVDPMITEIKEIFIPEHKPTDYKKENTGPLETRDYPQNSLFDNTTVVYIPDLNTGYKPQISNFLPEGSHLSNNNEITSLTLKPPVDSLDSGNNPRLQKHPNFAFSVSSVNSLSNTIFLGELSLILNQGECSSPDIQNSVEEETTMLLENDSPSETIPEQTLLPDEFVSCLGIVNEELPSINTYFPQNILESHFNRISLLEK
# [3] = Half life in simulated gastric fluid at 20 uM by LC-MS/MS analysis; assay type: ADME
# [4] = molecular target: T1, Interleukin-23 receptor; test: Inhibition of interleukin-23 receptor in human DB cells assessed as reduction in IL-23-stimulated STAT3 phosphorylation incubated for 30 mins by HTRF assay; assay type: cell-based
Compound,half-life at 20 µM [1],IC50 [2],half-life at 20 µM [3],IC50 [4]
CC(=O)NCCCC[C@](C)(NC(=O)[C@H](Cc1ccc2ccccc2c1)NC(=O)[C@H](Cc1ccc(OCCNC(C)=O)cc1)NC(=O)[C@@H](NC(=O)[C@H](CCC(N)=O)NC(=O)[C@H](Cc1c[nH]c2ccccc12)NC(=O)[C@@H](NC(=O)[C@H](CCC(N)=O)NC(=O)[C@@H](NC(C)=O)C(C)(C)S)[C@@H](C)O)C(C)(C)S)C(=O)N[C@@H](CCC(=O)O)C(=O)N[C@@H](CC(N)=O)C(=O)N[C@@H](C)C(N)=O,> 6 h,10 to 25 nM,> 6 h,< 10 nM
CC(=O)NCCCC[C@H](NC(=O)[C@](C)(CCCCN)NC(=O)[C@H](Cc1c[nH]c2ccccc12)NC(=O)[C@H](Cc1ccc(O)cc1)NC(=O)[C@@H](NC(=O)[C@H](CCC(N)=O)NC(=O)[C@H](Cc1c[nH]c2ccccc12)NC(=O)[C@@H](NC(=O)[C@H](CCC(N)=O)NC(=O)[C@@H](NC(C)=O)C(C)(C)S)[C@@H](C)O)C(C)(C)S)C(=O)N[C@@H](CC(N)=O)C(=O)NCC(N)=O,> 6 h,100 to 1000 nM,> 6 h,25 to 100 nM
CC(=O)NCCCC[C@H](NC(=O)[C@](C)(CC(C)C)NC(=O)[C@H](Cc1ccc2ccccc2c1)NC(=O)[C@H](Cc1ccc(OCCNC(C)=O)cc1)NC(=O)[C@@H](NC(=O)[C@H](CCC(N)=O)NC(=O)[C@H](Cc1c[nH]c2ccccc12)NC(=O)[C@@H](NC(=O)[C@H](CCC(N)=O)NC(=O)[C@@H](NC(C)=O)C(C)(C)S)[C@@H](C)O)C(C)(C)S)C(=O)N[C@@H](CC(N)=O)C(=O)N[C@@H](CC(N)=O)C(N)=O,> 6 h,< 10 nM,> 6 h,< 10 nM
CC(=O)NCCCC[C@H](NC(=O)C(C)(C)NC(=O)[C@H](Cc1ccc2ccccc2c1)NC(=O)[C@H](Cc1ccc(OCCN)cc1)NC(=O)[C@@H]1CSCC[C@H](NC(C)=O)C(=O)N[C@@H](CCC(N)=O)C(=O)N[C@@H]([C@@H](C)O)C(=O)N[C@@H](Cc2c[nH]c3ccccc23)C(=O)N[C@@H](CCC(N)=O)C(=O)N1)C(=O)N[C@@H](CC(N)=O)C(=O)NCC(N)=O,1 to 2 h,< 10 nM,1 to 2 h,< 10 nM
CC(=O)N[C@H]1CCSC[C@@H](C(=O)N[C@@H](Cc2ccc(OCCN)cc2)C(=O)N[C@@H](Cc2ccc3ccccc3c2)C(=O)N[C@@](C)(CCCCN)C(=O)N[C@@H](CCCCNC(=O)c2ccccc2)C(=O)N[C@@H](CC(N)=O)C(=O)NCC(N)=O)NC(=O)[C@H](CCC(N)=O)NC(=O)[C@H](Cc2c[nH]c3ccccc23)NC(=O)[C@H]([C@@H](C)O)NC(=O)[C@H](CCC(N)=O)NC1=O,3 to 6 h,< 10 nM,> 6 h,< 10 nM
CC(=O)NCCOc1ccc(C[C@H](NC(=O)[C@@H](NC(=O)[C@H](CCC(N)=O)NC(=O)[C@H](Cc2c[nH]c3ccccc23)NC(=O)[C@@H](NC(=O)[C@H](CCC(N)=O)NC(=O)[C@@H](NC(C)=O)C(C)(C)S)[C@@H](C)O)C(C)(C)S)C(=O)N[C@@H](Cc2ccc3ccccc3c2)C(=O)NC(C)(C)C(=O)N[C@@H](CCC(=O)O)C(=O)N[C@@H](CC(N)=O)C(=O)N[C@@H](CC(N)=O)C(N)=O)cc1,> 6 h,10 to 25 nM,> 6 h,< 10 nM
CC(=O)NCCCC[C@](C)(NC(=O)[C@H](Cc1ccc2ccccc2c1)NC(=O)[C@H](Cc1ccc(OCCNC(C)=O)cc1)NC(=O)[C@@H](NC(=O)[C@H](CCC(N)=O)NC(=O)[C@H](Cc1c[nH]c2ccccc12)NC(=O)[C@@H](NC(=O)[C@H](CCC(N)=O)NC(=O)[C@@H](NC(C)=O)C(C)(C)S)[C@@H](C)O)C(C)(C)S)C(=O)N[C@@H](CCC(=O)O)C(=O)N[C@@H](CC(N)=O)C(=O)NCC(N)=O,3 to 6 h,10 to 25 nM,> 6 h,< 10 nM
CC(=O)N[C@H]1CCSC[C@@H](C(=O)N[C@@H](Cc2ccc(OCCN)cc2)C(=O)N[C@@H](Cc2ccc3ccccc3c2)C(=O)N[C@@](C)(CCCCN)C(=O)N[C@@H](CC(N)=O)C(=O)N[C@@H](CC(N)=O)C(=O)NCC(N)=O)NC(=O)[C@H](CCC(N)=O)NC(=O)[C@H](Cc2c[nH]c3ccccc23)NC(=O)[C@H]([C@@H](C)O)NC(=O)[C@H](CCC(N)=O)NC1=O (Ac-[Abu(4-yl)]QTWQC[AEF][2Nal][αMeK]NNG-NH2; thioether 1-6),3 to 6 h,< 10 nM,3 to 6 h,< 10 nM
CC(=O)NCCCC[C@H](NC(=O)C(C)(C)NC(=O)[C@H](Cc1ccc2ccccc2c1)NC(=O)[C@H](Cc1ccc(OCCN)cc1)NC(=O)[C@@H](NC(=O)[C@H](CCC(N)=O)NC(=O)[C@H](Cc1c[nH]c2ccccc12)NC(=O)[C@@H](NC(=O)[C@H](CCC(N)=O)NC(=O)[C@@H](NC(C)=O)C(C)(C)S)[C@@H](C)O)C(C)(C)S)C(=O)N[C@@H](CC(N)=O)C(=O)N[C@@H](CCC(N)=O)C(N)=O,> 6 h,< 10 nM,> 6 h,< 10 nM
CC(=O)NCCCC[C@H](NC(=O)C(C)(C)NC(=O)[C@H](Cc1cccc2ccccc12)NC(=O)[C@H](Cc1ccc(OCCN)cc1)NC(=O)[C@@H]1CSCC[C@H](NC(C)=O)C(=O)N[C@@H](CCC(N)=O)C(=O)N[C@@H]([C@@H](C)O)C(=O)N[C@@H](Cc2c[nH]c3ccccc23)C(=O)N[C@@H](CCC(N)=O)C(=O)N1)C(=O)N[C@@H](CC(N)=O)C(=O)NCC(N)=O,> 6 h,25 to 100 nM,> 6 h,10 to 25 nM
CC(=O)NCCCC[C@H](NC(=O)[C@](C)(CCCCNC(C)=O)NC(=O)[C@H](Cc1ccc2ccccc2c1)NC(=O)[C@H](Cc1ccc(OCCNC(C)=O)cc1)NC(=O)[C@@H](NC(=O)[C@H](CCC(N)=O)NC(=O)[C@H](Cc1c[nH]c2ccccc12)NC(=O)[C@@H](NC(=O)[C@H](CCC(N)=O)NC(=O)[C@@H](NC(C)=O)C(C)(C)S)[C@@H](C)O)C(C)(C)S)C(=O)N[C@@H](CC(N)=O)C(=O)N[C@@H](CC(N)=O)C(N)=O,> 6 h,< 10 nM,> 6 h,< 10 nM
CC[C@](C)(NC(=O)[C@H](Cc1ccc2ccccc2c1)NC(=O)[C@H](Cc1ccc(OCCN)cc1)NC(=O)[C@@H]1CSCC[C@H](NC(C)=O)C(=O)N[C@@H](CCC(N)=O)C(=O)N[C@@H]([C@@H](C)O)C(=O)N[C@@H](Cc2c[nH]c3ccccc23)C(=O)N[C@@H](CCC(N)=O)C(=O)N1)C(=O)N[C@@H](CCCCNC(C)=O)C(=O)N[C@@H](CC(N)=O)C(=O)NCC(N)=O,1 to 2 h,< 10 nM,< 1 h,< 10 nM
CC(=O)N[C@H]1CCSC[C@@H](C(=O)N[C@@H](Cc2ccc(OCCN)cc2)C(=O)N[C@@H](Cc2c[nH]c3ccccc23)C(=O)N[C@@](C)(CC(C)C)C(=O)N[C@@H](CCC(=O)O)C(=O)N[C@@H](CC(N)=O)C(=O)NCC(N)=O)NC(=O)[C@H](CCC(N)=O)NC(=O)[C@H](Cc2c[nH]c3ccccc23)NC(=O)[C@H]([C@@H](C)O)NC(=O)[C@H](CCC(N)=O)NC1=O,> 6 h,< 10 nM,3 to 6 h,< 10 nM
CC(=O)NCCCC[C@H](NC(=O)C(C)(C)NC(=O)[C@H](Cc1ccc2ccccc2c1)NC(=O)[C@H](Cc1ccc(OCCN)cc1)NC(=O)[C@@H]1CSCC[C@H](NC(C)=O)C(=O)N[C@@H](CCC(N)=O)C(=O)N[C@@H]([C@@H](C)O)C(=O)N[C@@H](Cc2c[nH]c3ccccc23)C(=O)N[C@@H](CCC(N)=O)C(=O)N1)C(=O)N[C@@H](CCC(N)=O)C(=O)NCC(N)=O,2 to 3 h,10 to 25 nM,< 1 h,< 10 nM
CC(=O)NCCCC[C@H](NC(=O)C(C)(C)NC(=O)[C@H](Cc1ccc2ccccc2c1)NC(=O)[C@H](Cc1ccc(OCCNC(C)=O)cc1)NC(=O)[C@@H](NC(=O)[C@H](CCC(N)=O)NC(=O)[C@H](Cc1c[nH]c2ccccc12)NC(=O)[C@@H](NC(=O)[C@H](CCC(N)=O)NC(=O)[C@@H](NC(C)=O)C(C)(C)S)[C@@H](C)O)C(C)(C)S)C(=O)N[C@@H](CC(N)=O)C(=O)N[C@@H](CCC(N)=O)C(N)=O,> 6 h,< 10 nM,> 6 h,< 10 nM
CC(=O)NCCCC[C@H](NC(=O)C(C)(C)NC(=O)[C@H](Cc1ccc2ccccc2c1)NC(=O)[C@H](Cc1ccc(OCCN)cc1)NC(=O)[C@@H](NC(=O)[C@H](CCC(N)=O)NC(=O)[C@H](Cc1c[nH]c2ccccc12)NC(=O)[C@@H](NC(=O)[C@H](CCC(N)=O)NC(=O)[C@@H](NC(C)=O)C(C)(C)S)[C@@H](C)O)C(C)(C)S)C(=O)N[C@@H](CC(N)=O)C(=O)N[C@@H](CC(N)=O)C(N)=O,2 to 3 h,< 10 nM,3 to 6 h,< 10 nM
